Results from ChEMBL document CHEMBL1201862, “PubChem BioAssay data set” (2004).
Values belong to the compound of their own block, whether it stands above or below them. Activity calls are given as the source filed them.

Legend:
[1] = blockers of CAL PDZ–TMR peptide complex – biochemical, fluorescence polarization, untagged CAL PDZ, cherry-pick, set 2, dose response (AID 602254); format: functional
[2] = cAMP pathway inhibition in counterscreen cell line – TR-FRET cAMP detection, counter-screen for MC4R biased antagonist project, dose response (AID 602305); format: functional, cell-based;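 note: U2OS cells stimulated with forskolin near its EC80 as the cAMP inducer; potency is for inhibition of forskolin-stimulated cAMP signaling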
Melanocortin receptor 4 [3] = molecular target: T1, Melanocortin receptor 4 (Homo sapiens, UniProt P32245); experiment: inhibitors of MC4R cAMP signaling – cell-based, TR-FRET, biased antagonists, dose response (AID 602298); format: functional;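 note: antagonist potency against agonist-stimulated cAMP production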
T1 sequence (P32245 whole entry, the tested form may be a part): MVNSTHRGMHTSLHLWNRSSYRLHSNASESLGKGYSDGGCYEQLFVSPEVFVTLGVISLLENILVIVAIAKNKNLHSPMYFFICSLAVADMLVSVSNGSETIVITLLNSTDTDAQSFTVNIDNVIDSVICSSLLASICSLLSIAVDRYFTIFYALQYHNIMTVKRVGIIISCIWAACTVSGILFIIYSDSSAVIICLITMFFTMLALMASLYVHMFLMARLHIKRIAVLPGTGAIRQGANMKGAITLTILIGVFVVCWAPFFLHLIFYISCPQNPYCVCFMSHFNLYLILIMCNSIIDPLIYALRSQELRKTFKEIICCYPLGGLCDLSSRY

[4] = molecular target: Hepatocyte nuclear factor 4-alpha (Homo sapiens, UniProt P41235); format: functional, cell-based;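 note: biochemical luminescence-based dose-response counterscreen measuring inhibition of HNF4 dimerization, run alongside a screen for blockers of ABHD5–perilipin-5 interaction; split luciferase complementation of HNF4 fusion proteins in cell lysate measuring dimerization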
Sequence of Hepatocyte nuclear factor 4-alpha (P41235 whole entry, the tested form may be a part): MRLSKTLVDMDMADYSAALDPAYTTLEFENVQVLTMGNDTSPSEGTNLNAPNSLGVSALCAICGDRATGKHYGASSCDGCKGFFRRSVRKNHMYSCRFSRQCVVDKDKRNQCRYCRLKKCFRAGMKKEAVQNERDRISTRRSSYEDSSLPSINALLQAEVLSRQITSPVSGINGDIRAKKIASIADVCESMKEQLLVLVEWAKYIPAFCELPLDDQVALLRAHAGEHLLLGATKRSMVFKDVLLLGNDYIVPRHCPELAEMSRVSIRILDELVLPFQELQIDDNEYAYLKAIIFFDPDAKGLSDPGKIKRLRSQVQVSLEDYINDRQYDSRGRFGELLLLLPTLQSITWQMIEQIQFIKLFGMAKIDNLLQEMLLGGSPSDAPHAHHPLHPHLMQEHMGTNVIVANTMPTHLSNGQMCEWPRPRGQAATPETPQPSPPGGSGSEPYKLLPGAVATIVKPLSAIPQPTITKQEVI

Melanocortin receptor 4 [5] = molecular target: T1, Melanocortin receptor 4; format: functional, cell-based
[6] = molecular target: T2, ATP-dependent translocase ABCB1 (Homo sapiens, UniProt P08183); experiment: inhibition of BCRP-mediated JC-1 efflux – Ig-MXP3 cells, flow cytometry, set 2, dose response (AID 504566); format: functional; settings: read-out: EC50_MICROM_;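 note: flow cytometry median green fluorescence of retained JC-1 dye; potency of efflux pump inhibition measured as rising substrate retention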
T2 sequence (P08183 whole entry): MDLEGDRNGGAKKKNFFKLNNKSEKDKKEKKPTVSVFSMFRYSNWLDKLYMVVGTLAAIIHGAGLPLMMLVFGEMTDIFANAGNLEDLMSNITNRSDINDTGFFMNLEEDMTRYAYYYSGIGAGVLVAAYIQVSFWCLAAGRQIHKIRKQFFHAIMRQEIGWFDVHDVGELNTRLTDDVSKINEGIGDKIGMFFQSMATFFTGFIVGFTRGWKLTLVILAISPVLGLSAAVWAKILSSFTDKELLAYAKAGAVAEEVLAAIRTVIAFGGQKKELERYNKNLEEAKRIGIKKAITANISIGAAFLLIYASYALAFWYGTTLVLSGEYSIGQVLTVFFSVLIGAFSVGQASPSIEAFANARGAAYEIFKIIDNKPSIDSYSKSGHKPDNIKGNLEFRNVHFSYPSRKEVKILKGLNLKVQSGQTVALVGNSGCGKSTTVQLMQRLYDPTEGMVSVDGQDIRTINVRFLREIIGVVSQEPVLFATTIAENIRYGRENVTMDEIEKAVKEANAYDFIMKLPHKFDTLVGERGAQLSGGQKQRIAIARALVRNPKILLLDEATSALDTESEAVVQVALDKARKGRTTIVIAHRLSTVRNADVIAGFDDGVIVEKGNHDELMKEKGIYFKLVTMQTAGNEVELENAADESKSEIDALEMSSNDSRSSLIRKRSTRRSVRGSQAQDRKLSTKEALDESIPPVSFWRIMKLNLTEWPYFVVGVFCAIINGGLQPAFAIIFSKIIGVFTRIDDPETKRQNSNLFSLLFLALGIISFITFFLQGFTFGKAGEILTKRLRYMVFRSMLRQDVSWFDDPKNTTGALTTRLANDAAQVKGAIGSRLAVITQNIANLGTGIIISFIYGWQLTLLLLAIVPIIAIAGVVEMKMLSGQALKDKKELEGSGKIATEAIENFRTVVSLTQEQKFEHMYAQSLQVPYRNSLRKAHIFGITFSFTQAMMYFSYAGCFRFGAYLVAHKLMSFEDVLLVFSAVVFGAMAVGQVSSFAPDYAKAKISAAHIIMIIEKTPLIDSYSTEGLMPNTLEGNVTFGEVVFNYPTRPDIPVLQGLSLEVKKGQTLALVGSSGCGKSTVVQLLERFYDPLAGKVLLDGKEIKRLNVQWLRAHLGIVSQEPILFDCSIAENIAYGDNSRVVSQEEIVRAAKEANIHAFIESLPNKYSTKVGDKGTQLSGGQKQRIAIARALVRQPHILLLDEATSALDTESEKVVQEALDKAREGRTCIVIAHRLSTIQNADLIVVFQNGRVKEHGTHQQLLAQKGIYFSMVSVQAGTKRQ

[7] = molecular target: T2, ATP-dependent translocase ABCB1; experiment: P-gp JC-1 efflux blockade concentration-response – Jurkat-DNR cells, flow cytometry, set 2, dose response (AID 504569); format: functional; settings: read-out: EC50_MICROM_;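 note: potency of pump inhibitors that raise cellular JC-1 green fluorescence up to the nicardipine level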
[8] = molecular target: Potassium voltage-gated channel subfamily KQT member 2 (Rattus norvegicus, UniProt O88943); experiment: blockers of KCNQ2 channel current – cell-based, automated electrophysiology, set II, rat KCNQ2, dose response (AID 588637); format: functional
Sequence of Potassium voltage-gated channel subfamily KQT member 2 (O88943 whole entry): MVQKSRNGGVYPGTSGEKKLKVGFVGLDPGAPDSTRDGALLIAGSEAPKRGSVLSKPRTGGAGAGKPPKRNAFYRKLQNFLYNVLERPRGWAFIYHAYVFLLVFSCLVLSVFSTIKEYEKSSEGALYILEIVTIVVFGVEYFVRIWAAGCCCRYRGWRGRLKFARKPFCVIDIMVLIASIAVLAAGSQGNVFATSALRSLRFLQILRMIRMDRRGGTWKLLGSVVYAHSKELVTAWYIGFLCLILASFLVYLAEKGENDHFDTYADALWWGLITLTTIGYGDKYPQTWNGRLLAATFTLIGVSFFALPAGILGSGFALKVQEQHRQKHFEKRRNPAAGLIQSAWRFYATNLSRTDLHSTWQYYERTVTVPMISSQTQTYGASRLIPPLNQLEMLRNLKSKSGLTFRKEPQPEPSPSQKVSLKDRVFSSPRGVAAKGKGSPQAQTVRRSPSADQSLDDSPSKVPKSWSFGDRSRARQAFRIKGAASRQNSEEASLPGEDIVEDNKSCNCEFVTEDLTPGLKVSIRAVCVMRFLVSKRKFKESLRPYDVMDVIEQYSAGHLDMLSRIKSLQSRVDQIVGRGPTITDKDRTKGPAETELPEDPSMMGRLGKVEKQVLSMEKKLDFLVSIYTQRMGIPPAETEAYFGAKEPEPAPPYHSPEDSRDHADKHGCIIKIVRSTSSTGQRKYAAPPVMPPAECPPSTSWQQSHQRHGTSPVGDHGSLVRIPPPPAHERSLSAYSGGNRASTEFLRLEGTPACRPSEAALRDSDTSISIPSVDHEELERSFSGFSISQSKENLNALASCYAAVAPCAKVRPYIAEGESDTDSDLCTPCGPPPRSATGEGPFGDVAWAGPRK

IC50 [4]: 1.86 µM (active)
Structure (SMILES): CC(C)(C)NC(=O)C(c1cc2ccccc2o1)n1c(=O)c(-c2ccco2)nc2ccccc21 (stereo not drawn)

EC50 (Melanocortin receptor 4 [5]): > 89.2 µM (inactive)
Structure (SMILES): Cc1ccc(C(=O)Nc2nc(C(N)Cc3ccc(C(F)(F)F)cc3)cs2)cc1 (stereo not drawn)

EC50 [6]: 7.76 µM (active)
EC50 [7]: 6.31 µM (active)
Structure (SMILES): O=C(c1ccco1)N1CCN(c2c3c(nc4cc(-c5cccc(F)c5)nn24)CCC3)CC1

The next lines start with the compound.

Structure (SMILES): Cc1ccc(-c2nc(C)sc2CC(=O)OCC(=O)Nc2ccc(F)c(Cl)c2)cc1
AC50 [1]: 110 µM (active)

Structure (SMILES): Cc1ccc(-c2nn(-c3ccccc3)cc2NC(=O)CCl)cc1
IC50 [2]: > 64.6 µM (inactive)
IC50 (Melanocortin receptor 4 [3]): > 7.18 µM (active)

Structure (SMILES): COc1ccccc1CNC(=O)C(CC(C)C)NC(=O)C1CCC(C)CC1 (stereo not drawn)
IC50 [8]: 0.21 µM (active)
